Experimental data published in the supplement of paper PMC10307832.

Legend:
Test in all cases: relative viability (nuclei count vs DMSO), 5 days (fraction); higher = more cells survive
VX-11e = compound: CC1=CN=C(N=C1C2=CNC(=C2)C(=O)N[C@H](CO)C3=CC(=CC=C3)Cl)NC4=C(C=C(C=C4)F)Cl [VX-11e]
Procedure, shortened: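 A plate was accepted only when its control CV was below 25% and the cells had doubled at least once. Viability is defined from nuclear counts as treated wells divided by vehicle wells, with the median taken across plates. That median covers lung cancer cell lines grown in 1536-well plates, dosed by pinning at five √10-spaced library-drug concentrations, and counted in MetaXpress from 4× Hoechst images after 5 days.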

VX-11e + Trametinib = compound: CC1=CN=C(N=C1C2=CNC(=C2)C(=O)N[C@H](CO)C3=CC(=CC=C3)Cl)NC4=C(C=C(C=C4)F)Cl [VX-11e] + CC(=O)Nc1cccc(-n2c(=O)n(C3CC3)c(=O)c3c(Nc4ccc(I)cc4F)n(C)c(=O)c(C)c32)c1 [Trametinib] (partner 0.02 µM)
Procedure, shortened: (§1)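 The day after seeding in 1536-well plates, lung cancer cell lines were treated by pin tool with a single drug, or with a fixed anchor-drug dose together with five library-drug doses (not always all listed) in √10 steps. After 5 days, a combined fix-and-stain solution (final 0.05% Triton X-100, 1% formaldehyde, 1 ug/ml Hoechst) was added. Nuclei counted on 4× images gave relative viability as treated counts over vehicle counts, reported as the median of duplicate plates.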

VX-11e + OSI-027 = compound: CC1=CN=C(N=C1C2=CNC(=C2)C(=O)N[C@H](CO)C3=CC(=CC=C3)Cl)NC4=C(C=C(C=C4)F)Cl [VX-11e] + COc1cccc2cc(-c3nc([C@H]4CC[C@H](C(=O)O)CC4)n4ncnc(N)c34)[nH]c12 [OSI-027] (partner 0.5 µM)
Procedure, shortened: as §1

VX-11e + Phenformin = compound: CC1=CN=C(N=C1C2=CNC(=C2)C(=O)N[C@H](CO)C3=CC(=CC=C3)Cl)NC4=C(C=C(C=C4)F)Cl [VX-11e] + N=C(N)NC(=N)NCCc1ccccc1 [Phenformin] (partner 250 µM)
Procedure, shortened: as §1

Cell Line	relative viability (VX-11e; 0.04 µM)	relative viability (VX-11e; 0.1265 µM)	relative viability (VX-11e; 0.4 µM)	relative viability (VX-11e; 1.265 µM)	relative viability (VX-11e; 4 µM)	relative viability (VX-11e + Trametinib; first compound 0.04 µM)	relative viability (VX-11e + Trametinib; first compound 0.1265 µM)	relative viability (VX-11e + Trametinib; first compound 0.4 µM)	relative viability (VX-11e + Trametinib; first compound 4 µM)	relative viability (VX-11e + OSI-027; first compound 0.04 µM)	relative viability (VX-11e + OSI-027; first compound 0.1265 µM)	relative viability (VX-11e + OSI-027; first compound 0.4 µM)	relative viability (VX-11e + OSI-027; first compound 1.265 µM)	relative viability (VX-11e + OSI-027; first compound 4 µM)	relative viability (VX-11e + Phenformin; first compound 0.04 µM)	relative viability (VX-11e + Phenformin; first compound 0.1265 µM)	relative viability (VX-11e + Phenformin; first compound 0.4 µM)	relative viability (VX-11e + Phenformin; first compound 1.265 µM)	relative viability (VX-11e + Phenformin; first compound 4 µM)	relative viability (VX-11e + Trametinib; first compound 1.265 µM)
LCLC-97TM1	0.911	0.889	0.797	0.499	0.541	0.21	0.179	0.17	0.0986	0.494	0.274	0.287	0.418	0.175	0.525	0.393	0.347	0.516	0.382	–
LCLC-103H	0.939	0.924	0.981	0.783	0.805	0.67	0.633	0.689	0.558	0.461	0.458	0.43	0.402	0.344	0.309	0.333	0.312	0.302	0.295	0.628
LK-2	0.908	0.983	0.821	0.588	0.705	0.831	0.668	0.806	0.312	0.163	0.187	0.146	0.153	0.17	0.241	0.601	0.311	0.189	0.173	0.234
LOU-NH91	0.855	0.924	–	0.733	0.797	0.813	0.73	–	0.691	0.622	0.67	0.497	0.611	0.541	0.65	0.721	0.312	0.468	0.569	0.768
LU99A	1.03	0.933	0.802	0.77	0.394	0.504	0.316	0.421	0.258	0.257	0.324	0.249	0.286	0.256	0.881	0.754	0.28	0.907	0.382	0.272
NCI-H1299	1.01	0.981	1.03	1.03	0.49	–	–	–	–	–	–	–	–	–	–	–	–	–	–	–
NCI-H1563	0.983	0.916	0.908	0.944	0.82	–	–	–	–	0.729	0.697	0.705	0.822	0.789	0.647	0.607	0.549	0.713	0.806	–
NCI-H1648	0.978	0.958	1.54	0.694	0.624	–	0.406	0.5	0.291	0.273	0.238	0.29	0.245	0.241	–	–	–	–	–	0.376
NCI-H1703	0.828	1.11	0.632	0.961	0.74	–	–	–	–	–	–	–	–	–	–	–	–	–	–	–
